The values that follow are results of earlier work, collected in patent US6673157B1, “Methods for stripping paint with DMSO containing compositions” (Gaylord Chemical Corporation, priority 2000, dated 2004).

The conditions of data set [1]: pure substance.
For data set [2] the following is noted: applied to intact human skin in vivo; abrupt fall-off below 70%.
The conditions of data set [3]: DMSO concentrations as high as 40%; living human skin.

Consider `C[S+](C)[O-]` [DMSO, dimethyl sulfoxide], for which the “LD50 oral rat toxicity” value is recorded as “approximately 17,400 milligrams per kilogram”. The “Rate of penetration of animal skin” value in data set [1] is reported as “approximately 176±42 g/m^2/hr”. Also, the “DMSO concentration at which it penetrates intact skin to the blood vessels” value in data set [2] is given as not below 70%. Besides, the “Effect of DMSO on rate of skin penetration of octyl acetate” value in data set [3] is “did not increase the rate of skin penetration of octyl acetate”.

Consider `CC(=O)OC(C)(C)C` [t-butyl acetate], for which the “LD50 oral rat toxicity” value is on record as “about 4500 mg per kilogram”.

With `O` [water, reference compound], the “Rate of penetration of animal skin” value in data set [1] is on record as “approximately 14.8±0.1 g/m^2/hr”.
